Entries after “also recorded” stand apart in the source; their conditions may differ.
Assays:
[1] = system: PCI-43 cells; assay: Intra-tumoral injection of AM or AMA peptide, tumor size of PCI-43 xenograft (Example 2); assay type: in vivo, mouse; details: 50 μg in 0.1 ml saline into the tumor once a day, 7th to 16th day, observed to 21st day, SCID mice
Protocol: On the dorsal side of a CB17lcr-scid Jl mouse (CLEA JAPAN Inc.), 10^7 PCI-43 cells were subcutaneously transplanted. It was confirmed that PCI-43 cells proliferated to form a tumor, and that the tumor diameter exceeded 5 mm after 7 days. After that confirmation, 50 μg […] each of adrenomedullin and a peptide of the present invention (dissolved in 0.1 ml of physiological saline) was injected into the tumor once a day starting on the 7th day until the 16th day. A peptide consisting of SEQ ID NO: 2 was used as the peptide of the present invention (hereinafter also referred to as an “adrenomedullin antagonist (AMA)”). This peptide was purchased from Wako Pure Chemical Industries, Ltd.
The tumor diameter was megascopically measured every three days. Results are shown in FIG. 2, a graphical representation of tumor sizes when adrenomedullin, adrenomedullin antagonist, and physiological saline (V3), respectively, were administered. The horizontal axis represents the number of days after transplanting PCI-43 cells, and the vertical axis the size of the tumor in volume (mm^3). Arrows at the upper part of the graph indicate timings of administration of adrenomedullin, adrenomedullin antagonist, and physiological saline. Five CB 17lcr-scid Jl mice were used in each group.

[2] = system: PCI-43 cells; assay: Intra-tumoral injection of AM or AMA peptide, extirpated PCI-43 tumor size and weight (Example 3); assay type: in vivo, mouse
Protocol: On the dorsal side of CB17lcr-scid Jl mice (CLEA JAPAN Inc.), 10^7 PCI-43 cells were subcutaneously transplanted. It was confirmed that PCI-43 cells proliferated to form a tumor, and that the tumor diameter exceeded 5 mm after 7 days. After that confirmation, 50 μg each […] of adrenomedullin and adrenomedullin antagonist (dissolved in 0.1 ml of physiological saline) was injected into the tumor once every three days from the 7th day, that is, on the 7th, 10th, 13th, and 16th days. Adrenomedullin and adrenomedullin antagonist used herein were the same as those used in Example 1.
Mice were sacrificed on the 21st day, and tumors were extirpated and weighed.

[3] = system: newly generated blood vessels; assay: Anti-CD31 staining and diameters of newly generated blood vessels in tumor tissue (Example 4); assay type: in vivo, mouse; details: for Average ± standard deviation of blood vessel diameters: 100 newly generated blood vessels; for Number of blood vessels 2 μm to less than 8 μm / Number of blood vessels 8 μm or more / Number of blood vessels less than 2 μm: of 100 arbitrarily selected newly generated blood vessels, by diameter; for newly generated blood vessels by anti-CD31 staining: tumor tissue of Example 3 mice, FIG. 5
Protocol: The effect of a peptide of the present invention on angiogenesis was examined. Experiments were carried out with the tumor tissues of mice used in Example 3. Mouse tumor tissues were extirpated, and CD31 antigen, which is the cell surface marker specific for vascular endothelial cells, was stained with anti-CD31 antibody. Staining was performed as described below. The experiments were carried out using five mice.
Tumor tissues were frozen in liquid nitrogen to prepare frozen sections. After the frozen sections were pre-treated in albumin solution for 30 min, endogenous peroxidase activity was suppressed with hydrogen peroxide, and then, the sections were treated with anti-CD31 antibody for 1 h at room temperature. After washing, the sections were treated with a secondary antibody for 1 h, and coloured using […].
Next, 100 newly generated blood vessels of the vascular endothelial cells used in Example 4 were arbitrarily selected to measure their respective diameters. In Table 1, results of the number of the newly generated blood vessels classified by their diameters into three groups (less than 2 μm, 2 μm to less than 8 μm, and 8 μm or more) are shown together with the average of blood vessel diameters and standard deviations. In Table 1, AM stands for adrenomedullin, and AMA adrenomedullin antagonist.

[4] = system: proliferating cell nuclear antigen (PCNA) of tumor cells; assay: Anti-PCNA staining of tumor cells (Example 5); assay type: in vivo, mouse; details: for cells reacting with the anti-PCNA antibody: FIG. 6; for PCNA-labelling index: tumor cells of treated mice
Description: The effect of a peptide of the present invention on cell proliferation was examined. The proliferating cell nuclear antigen (PCNA) of tumor cells from the mice used in Example 2 was stained with anti-PCNA antibody. The staining method was the same as in Example 4. Five mice were used in the experiment. The staining results for tumor cells of an adrenomedullin-administered mouse are shown on the left side in FIG. 6, while those of an adrenomedullin antagonist-administered mouse are shown on the right side.

[5] = system: HUVEC cells; assay: MTS assay, endothelial cell growth under normoxic, normal glucose conditions (Example 7A); assay type: cell-based; details: AM 0 to 10^-6 M, 48 h, normoxic and nutrient-supplied
Protocol: The effect of AM on the growth of endothelial cells under normal conditions (normoxia, normal glucose) is examined herein. As in Example I above, normoxic conditions comprised culture in 20% O2 concentration and normal glucose conditions involved addition of 100 mg/dl of glucose or higher.
Five×10^3 cells (2×10^4 in some experiments) were plated in wells of 96-well plates. Human adrenomedullin (AM) (SEQ ID NO: 1) was added at indicated concentrations, ranging from 0 to 10^−6 M. The cells were incubated for 48 h and the viable cell numbers were determined by MTS assay according to the manufacturer's instructions. Cell viability can be reflected by the integrity of the mitochondria. When the MTS reagent (a tetrazolium salt) is applied to living cells, it is converted to a color compound (formazan) […] at 490 nm. Accordingly, the MTS assay may be used to assay cell viability and to count viable cells.

[6] = system: HUVEC cells; assay: MTS assay, endothelial cells under hypoxic and nutrient-deprived conditions with VEGF and FGF (Example 7B); assay type: cell-based; details: hypoxic and glucose-deprived, AM 0 to 10^-6 M, VEGF and FGF 10 ng/ml, 48 h
Protocol: The effect of AM on the growth and apoptosis of endothelial cells under extreme conditions (hypoxic and nutrient-deprived) and in the presence of growth factors is examined herein. As in Example 1 above, hypoxic conditions comprised culture in 1% O2 concentration for 12 h using a hypoxic culture chamber (Wakenyaku Industry) and nutrient-deprived conditions involved addition of only 13 mg/dl glucose.
(§1) Five×10^3 cells (2×10^4 in some experiments) were plated in wells of 96-well plates. Human adrenomedullin (AM) (SEQ ID NO: 1) was added at indicated concentrations, ranging from 0 to 10^−6 M. VEGF and FGF were added at 10 ng/ml. The cells were incubated for 48 h and the viable cell numbers were determined by the MTS assay according to the manufacturer's instructions as described above in Example 7A.

[7] = system: Rat-2 cells; assay: Intracellular cAMP in Rat-2 cells; assay type: cell-based; details: in the absence of CGRP binding
Description: (§2) In order to skip this problem, cell lines expressing endogenous adrenomedullin binding. Three cell lines to date are available. L6 cells are a rat myoblast cell line known to express CGRP1 receptors, Swiss 3T3 cells are a mouse fibroblast cell line, and Rat-2 cells are rat fibroblasts. […] L6 cells express CRLR and RAMPs 1 and 2. In Swiss 3T3 cells the effects of adrenomedullin were mediated via specific adrenomedullin receptors. […] These cells are useful in establishing the screening system to inhibit functionally the intracellular signal transduction after a receptor engagement by adrenomedullin.

[8] = system: Mitogen-activated protein kinases (MAPKS); assay: MAPK activity in Rat-2 cells; assay type: cell-based
Description: as §2

[9] = system: U87 glioblastoma cells; details: exogenously added; cited from earlier work
[10] = system: HUVEC cells; assay: MTS assay, AMA with AM on endothelial cells under hypoxic and nutrient-deprived conditions (Example 7C); assay type: cell-based; details: AM 10^-6 M, AMA 0 to 10^-6 M, VEGF and FGF 10 ng/ml, 48 h
Protocol: The effect of both AM and AMA together on the growth and apoptosis of endothelial cells under extreme conditions (hypoxic and nutrient-deprived) and in the presence of growth factors is examined herein. As in Example 1 above, hypoxic conditions comprised culture in 1% O2 concentration for 12 h using a hypoxic culture chamber (Wakenyaku Industry) and nutrient-deprived conditions involved addition of only 13 mg/dl glucose.
as §1, with “1) was added at a concentration of 10^−6 M and a human adrenomedullin antagonist peptide (AMA) (SEQ ID NO: 2)” for “1)”

[11] = system: cancer cells; assay: In vitro growth of cancer cells with AMA; assay type: cell-based

Row | Substance | Average ± standard deviation of blood vessel diameters [3] | Number of blood vessels 2 μm to less than 8 μm [3] | Number of blood vessels 8 μm or more [3] | Number of blood vessels less than 2 μm [3] | newly generated blood vessels by anti-CD31 staining [3] | cells reacting with the anti-PCNA antibody [4] | PCNA-labelling index [4] | apoptosis of endothelial cells (viable cells, O.D.) [6] | also measured
1 | adrenomedullin (YRQSMNNFQGLRSFGCRFGTCTVQKLAHQIYQFTDKDKDNVAPRSKISPQGY; listed as Homo sapiens) [AM, reference compound] | 6.454 ± 5.313 μm | 54 | 31 | 15 | thick blood vessels were newly generated | many cells reacting with the anti-PCNA antibody were present | 25.8±3.9 | protected the endothelial cells from apoptosis | tumor size (volume) [1]: the tumor size hardly changed; tumor weight ([2]; 50 μg into the tumor on 7th, 10th, 13th, 16th days, tumors extirpated on 21st day): about 0.05 g; growth of endothelial cells (viable cells, O.D.) [5]: no significant effect; intracellular cAMP [7]: dose-dependent stimulation of intracellular cAMP; PDGF-stimulated and basal MAPK activity [8]: potently and dose-dependently inhibited; growth of glioblastoma cells in vitro [9]: can stimulate the growth
2 | AMA: 31 amino acid truncated human adrenomedullin lacking the first 21 N-terminal amino acids (SEQ ID NO: 2), purchased from Wako | 2.276 ± 1.120 μm | 44 | 1 | 55 | newly generated blood vessels were thin | few cells reacted with the anti-PCNA antibody | 6.3±5.2 |  | tumor size (volume) ([1]; listed as adrenomedullin antagonist): became almost megascopically invisible; also recorded: reduction in tumor volume; tumor weight relative to adrenomedullin-administered group ([2]; 21st day): about half; size of the extirpated tumor compared to adrenomedullin-administered group ([2]; 21st day, photograph FIG. 3, listed as adrenomedullin antagonist): became smaller; also recorded: noticeably smaller; blood vessel diameters relative to adrenomedullin-administered mice ([3]; mouse, in vivo): one half; proliferating cells compared to adrenomedullin-administered mice ([4]; mouse, in vivo): decreased by about one quarter; apoptosis of endothelial cells (viable cells, O.D.) [10]: induced apoptosis of the endothelial cells in a dose dependent manner; growth inhibitory effect on cancer cells in vitro [11]: did not exhibit any growth inhibitory effect
3 | VEGF |  |  |  |  |  |  |  | underwent apoptosis | 
